ChEMBL document CHEMBL3132857, “Design, synthesis and biological evaluation of novel indano- and thiaindano-pyrazoles with potential interest for Alzheimer's disease” (Medchemcomm, 2013)

Assays:
Acetylcholinesterase [1] = target: T1, Acetylcholinesterase (Homo sapiens, UniProt P22303); experiment: Inhibition of human erythrocyte AChE using acetylthiocholine chloride by spectrophotometry
Acetylcholinesterase [2] = target: T2, Acetylcholinesterase (Electrophorus electricus, UniProt O42275); experiment: Inhibition of electric eel AChE using acetylthiocholine chloride by spectrophotometry
[3] = target: Butyrylcholinesterase (Equus caballus) (UniProt Q9N1N9); experiment: Inhibition of horse serum BuChE at 10 uM using butyrylthiocholine chloride by spectrophotometry
[4] = target: Acetylcholinesterase (Electrophorus electricus) (UniProt O42275); experiment: Inhibition of electric eel AChE at 10 uM using acetylthiocholine chloride by spectrophotometry
Acetylcholinesterase [5] = target: T1, Acetylcholinesterase; experiment: Inhibition of human erythrocyte AChE at 10 uM using acetylthiocholine chloride by spectrophotometry
Butyrylcholinesterase = Butyrylcholinesterase (Equus caballus, UniProt Q9N1N9); experiment: Inhibition of horse serum BuChE using butyrylthiocholine chloride by spectrophotometry
Acetylcholinesterase [6] = target: T2, Acetylcholinesterase; experiment: Reversible mixed type inhibition of electric eel AChE using acetylthiocholine chloride by Lineweaver-Burk plot method and Ellman's method based spectrophotometry
Acetylcholinesterase [7] = target: T2, Acetylcholinesterase; experiment: Non-competitive inhibition of electric eel AChE using acetylthiocholine chloride by Lineweaver-Burk plot method and Ellman's method based spectrophotometry

SMILES	IC50 (Acetylcholinesterase [1])	IC50 (Acetylcholinesterase [2])	inhibition (Acetylcholinesterase [5])	other results
Cn1ncc2c1-c1sccc1C2NC(=O)CN1CCN(Cc2ccccc2F)CC1 (stereo not drawn)	1320 nM	1310 nM	–	–
O=C(CN1CCN(Cc2ccccc2)CC1)NC1c2cnn(-c3ccccc3)c2-c2c(Br)sc(Br)c21 (stereo not drawn)	870 nM	290 nM	–	inhibition [3]: 37%
Cn1ncc2c1-c1sccc1C2NC(=O)CN1CCN(Cc2ccccc2)CC1 (stereo not drawn)	930 nM	1910 nM	–	–
COc1cc2c(cc1OC)C(NC(=O)CN1CCN(Cc3ccccc3F)CC1)c1cnn(C)c1-2 (stereo not drawn)	2440 nM	720 nM	–	inhibition [3]: 1%
O=C(CN1CCN(Cc2ccccc2F)CC1)NC1c2cnn(-c3ccccc3)c2-c2c(Br)sc(Br)c21 (stereo not drawn)	–	–	15%	inhibition [4]: 27%
COc1cc2c(cc1OC)C(NC(=O)CN1CCN(Cc3ccccc3)CC1)c1cnn(-c3ccccc3)c1-2 (stereo not drawn)	2990 nM	1360 nM	–	–
COc1cc2c(cc1OC)C(NC(=O)CN1CCN(Cc3ccccc3)CC1)c1cnn(C)c1-2 (stereo not drawn)	1840 nM	1280 nM	–	–
O=C(CN1CCN(Cc2ccccc2F)CC1)NC1c2cn[nH]c2-c2sccc21 (stereo not drawn)	–	4590 nM	42%	–
O=C(CN1CCN(Cc2ccccc2)CC1)NC1c2cn[nH]c2-c2c(Br)sc(Br)c21 (stereo not drawn)	1130 nM	8820 nM	–	–
O=C(CN1CCN(Cc2ccccc2)CC1)NC1c2cn[nH]c2-c2sccc21 (stereo not drawn)	9180 nM	–	–	inhibition [4]: 49%
O=C(CN1CCN(Cc2ccccc2)CC1)NC1c2ccsc2-c2c1cnn2-c1ccccc1 (stereo not drawn)	–	–	36%	inhibition [4]: 31%
COc1cc2c(cc1OC)C(NC(=O)CN1CCN(Cc3ccccc3F)CC1)c1cn[nH]c1-2 (stereo not drawn)	–	3980 nM	50%	–
Cn1ncc2c1-c1c(Br)sc(Br)c1C2NC(=O)CN1CCN(Cc2ccccc2)CC1 (stereo not drawn)	330 nM	100 nM	–	IC50 (Butyrylcholinesterase): 7760 nM; Ki (Acetylcholinesterase [6]): 235 nM
COc1cc2c(cc1OC)C(NC(=O)CN1CCN(Cc3ccccc3F)CC1)c1cnn(-c3ccccc3)c1-2 (stereo not drawn)	2430 nM	210 nM	–	inhibition [3]: 8%
O=C(CN1CCN(Cc2ccccc2F)CC1)NC1c2ccsc2-c2c1cnn2-c1ccccc1 (stereo not drawn)	–	4060 nM	42%	–
Cn1ncc2c1-c1c(Br)sc(Br)c1C2NC(=O)CN1CCN(Cc2ccccc2F)CC1 (stereo not drawn)	880 nM	240 nM	–	Ki (Acetylcholinesterase [7]): 429 nM; inhibition [3]: 30%
O=C(CN1CCN(Cc2ccccc2F)CC1)NC1c2cn[nH]c2-c2c(Br)sc(Br)c21 (stereo not drawn)	–	4530 nM	42%	–
COc1cc2c(cc1OC)C(NC(=O)CN1CCN(Cc3ccccc3)CC1)c1cn[nH]c1-2 (stereo not drawn)	–	2940 nM	49%	–
